Reference: the NIST ThermoML archive (doi:10.1016/j.jct.2018.02.003)
Values joined by “and” are separate entries in the source; they are usually repeats but may differ in a detail not shown here. Identical values can stand only once.

Conditions: Liquid; for speed of sound: Frequency=3 MHz, Single path-length method; for mass density: Vibrating tube method

COC(F)(C(F)(F)C(F)(F)F)C(F)(C(F)(F)F)C(F)(F)F (configuration not stated)
Conditions	mass density	speed of sound [m/s]
293.15 K, 100 kPa	1668.2 kg/m3 and 1668.43 kg/m3	644.5
293.15 K, 1000 kPa	1670.8 kg/m3	–
293.15 K, 5000 kPa	1681.9 kg/m3	–
293.15 K, 10000 kPa	1694.8 kg/m3	–
293.15 K, 15000 kPa	1706.6 kg/m3	–
293.15 K, 20000 kPa	1717.6 kg/m3	–
293.15 K, 25000 kPa	1727.9 kg/m3	–
293.15 K, 30000 kPa	1737.7 kg/m3	–
293.15 K, 35000 kPa	1746.9 kg/m3	–
293.15 K, 40000 kPa	1755.6 kg/m3	–
293.15 K, 45000 kPa	1764 kg/m3	–
293.15 K, 50000 kPa	1772 kg/m3	–
293.15 K, 55000 kPa	1779.7 kg/m3	–
293.15 K, 60000 kPa	1787 kg/m3	–
293.15 K, 65000 kPa	1794.1 kg/m3	–
293.15 K, 70000 kPa	1800.9 kg/m3	–
293.15 K, 80000 kPa	1814 kg/m3	–
293.15 K, 90000 kPa	1826.3 kg/m3	–
293.15 K, 100000 kPa	1837.8 kg/m3	–
293.15 K, 110000 kPa	1848.8 kg/m3	–
293.15 K, 120000 kPa	1859.3 kg/m3	–
293.15 K, 130000 kPa	1869.3 kg/m3	–
293.15 K, 140000 kPa	1878.8 kg/m3	–
298.15 K, 100 kPa	1656.7 kg/m3 and 1656.79 kg/m3	629.44
298.15 K, 1000 kPa	1659.4 kg/m3	–
298.15 K, 5000 kPa	1671 kg/m3	–
298.15 K, 10000 kPa	1684.4 kg/m3	–
298.15 K, 15000 kPa	1696.6 kg/m3	–
298.15 K, 20000 kPa	1708 kg/m3	–
298.15 K, 25000 kPa	1718.6 kg/m3	–
298.15 K, 30000 kPa	1728.6 kg/m3	–
298.15 K, 35000 kPa	1738.1 kg/m3	–
298.15 K, 40000 kPa	1747.1 kg/m3	–
298.15 K, 45000 kPa	1755.6 kg/m3	–
298.15 K, 50000 kPa	1763.8 kg/m3	–
298.15 K, 55000 kPa	1771.7 kg/m3	–
298.15 K, 60000 kPa	1779.3 kg/m3	–
298.15 K, 65000 kPa	1786.5 kg/m3	–
298.15 K, 70000 kPa	1793.4 kg/m3	–
298.15 K, 80000 kPa	1806.7 kg/m3	–
298.15 K, 90000 kPa	1819.1 kg/m3	–
298.15 K, 100000 kPa	1831 kg/m3	–
298.15 K, 110000 kPa	1842 kg/m3	–
298.15 K, 120000 kPa	1852.7 kg/m3	–
298.15 K, 130000 kPa	1862.8 kg/m3	–
298.15 K, 140000 kPa	1872.5 kg/m3	–
303.15 K, 100 kPa	1645.11 kg/m3	614.76
313.15 K, 100 kPa	1621.3 kg/m3 and 1621.41 kg/m3	585.65
313.15 K, 1000 kPa	1624.5 kg/m3	–
313.15 K, 5000 kPa	1637.7 kg/m3	–
313.15 K, 10000 kPa	1652.7 kg/m3	–
313.15 K, 15000 kPa	1666.3 kg/m3	–
313.15 K, 20000 kPa	1678.8 kg/m3	–
313.15 K, 25000 kPa	1690.4 kg/m3	–
313.15 K, 30000 kPa	1701.4 kg/m3	–
313.15 K, 35000 kPa	1711.6 kg/m3	–
313.15 K, 40000 kPa	1721.2 kg/m3	–
313.15 K, 45000 kPa	1730.5 kg/m3	–
313.15 K, 50000 kPa	1739.2 kg/m3	–
313.15 K, 55000 kPa	1747.6 kg/m3	–
313.15 K, 60000 kPa	1755.5 kg/m3	–
313.15 K, 65000 kPa	1763.3 kg/m3	–
313.15 K, 70000 kPa	1770.7 kg/m3	–
313.15 K, 80000 kPa	1784.8 kg/m3	–
313.15 K, 90000 kPa	1797.9 kg/m3	–
313.15 K, 100000 kPa	1810.2 kg/m3	–
313.15 K, 110000 kPa	1822 kg/m3	–
313.15 K, 120000 kPa	1832.9 kg/m3	–
313.15 K, 130000 kPa	1843.5 kg/m3	–
313.15 K, 140000 kPa	1853.5 kg/m3	–
323.15 K, 100 kPa	1597.04 kg/m3	557.04
333.15 K, 100 kPa	1572.7 kg/m3 and 1572.8 kg/m3	529.01
333.15 K, 1000 kPa	1576.5 kg/m3	–
333.15 K, 5000 kPa	1592.3 kg/m3	–
333.15 K, 10000 kPa	1609.9 kg/m3	–
333.15 K, 15000 kPa	1625.7 kg/m3	–
333.15 K, 20000 kPa	1639.8 kg/m3	–
333.15 K, 25000 kPa	1653 kg/m3	–
333.15 K, 30000 kPa	1665.2 kg/m3	–
333.15 K, 35000 kPa	1676.5 kg/m3	–
333.15 K, 40000 kPa	1687.3 kg/m3	–
333.15 K, 45000 kPa	1697.5 kg/m3	–
333.15 K, 50000 kPa	1707 kg/m3	–
333.15 K, 55000 kPa	1716.1 kg/m3	–
333.15 K, 60000 kPa	1724.7 kg/m3	–
333.15 K, 65000 kPa	1733.1 kg/m3	–
333.15 K, 70000 kPa	1741 kg/m3	–
333.15 K, 80000 kPa	1756.1 kg/m3	–
333.15 K, 90000 kPa	1770.2 kg/m3	–
333.15 K, 100000 kPa	1783.3 kg/m3	–
333.15 K, 110000 kPa	1795.6 kg/m3	–
333.15 K, 120000 kPa	1807.3 kg/m3	–
333.15 K, 130000 kPa	1818.5 kg/m3	–
333.15 K, 140000 kPa	1829.1 kg/m3	–
353.15 K, 100 kPa	1521.7 kg/m3	–
353.15 K, 1000 kPa	1526.5 kg/m3	–
353.15 K, 5000 kPa	1545.6 kg/m3	–
353.15 K, 10000 kPa	1566.5 kg/m3	–
353.15 K, 15000 kPa	1584.7 kg/m3	–
353.15 K, 20000 kPa	1601 kg/m3	–
353.15 K, 25000 kPa	1615.8 kg/m3	–
353.15 K, 30000 kPa	1629.5 kg/m3	–
353.15 K, 35000 kPa	1642.1 kg/m3	–
353.15 K, 40000 kPa	1653.7 kg/m3	–
353.15 K, 45000 kPa	1664.8 kg/m3	–
353.15 K, 50000 kPa	1675.2 kg/m3	–
353.15 K, 55000 kPa	1685.1 kg/m3	–
353.15 K, 60000 kPa	1694.5 kg/m3	–
353.15 K, 65000 kPa	1703.5 kg/m3	–
353.15 K, 70000 kPa	1712.1 kg/m3	–
353.15 K, 80000 kPa	1728.1 kg/m3	–
353.15 K, 90000 kPa	1743.1 kg/m3	–
353.15 K, 100000 kPa	1757 kg/m3	–
353.15 K, 110000 kPa	1770.1 kg/m3	–
353.15 K, 120000 kPa	1782.5 kg/m3	–
353.15 K, 130000 kPa	1794.1 kg/m3	–
353.15 K, 140000 kPa	1805.2 kg/m3	–
373.15 K, 1000 kPa	1473.5 kg/m3	–
373.15 K, 5000 kPa	1497.1 kg/m3	–
373.15 K, 10000 kPa	1521.9 kg/m3	–
373.15 K, 15000 kPa	1543.1 kg/m3	–
373.15 K, 20000 kPa	1561.5 kg/m3	–
373.15 K, 25000 kPa	1578.3 kg/m3	–
373.15 K, 30000 kPa	1593.7 kg/m3	–
373.15 K, 35000 kPa	1607.7 kg/m3	–
373.15 K, 40000 kPa	1620.4 kg/m3	–
373.15 K, 45000 kPa	1632.5 kg/m3	–
373.15 K, 50000 kPa	1643.9 kg/m3	–
373.15 K, 55000 kPa	1654.6 kg/m3	–
373.15 K, 60000 kPa	1664.7 kg/m3	–
373.15 K, 65000 kPa	1674.3 kg/m3	–
373.15 K, 70000 kPa	1683.4 kg/m3	–
373.15 K, 80000 kPa	1700.6 kg/m3	–
373.15 K, 90000 kPa	1716.5 kg/m3	–
373.15 K, 100000 kPa	1731.3 kg/m3	–
373.15 K, 110000 kPa	1745.1 kg/m3	–
373.15 K, 120000 kPa	1758.1 kg/m3	–
373.15 K, 130000 kPa	1770.3 kg/m3	–
373.15 K, 140000 kPa	1782 kg/m3	–
393.15 K, 1000 kPa	1417.2 kg/m3	–
393.15 K, 5000 kPa	1446.9 kg/m3	–
393.15 K, 10000 kPa	1476.7 kg/m3	–
393.15 K, 15000 kPa	1501.4 kg/m3	–
393.15 K, 20000 kPa	1522.8 kg/m3	–
393.15 K, 25000 kPa	1541.5 kg/m3	–
393.15 K, 30000 kPa	1558.4 kg/m3	–
393.15 K, 35000 kPa	1573.8 kg/m3	–
393.15 K, 40000 kPa	1588 kg/m3	–
393.15 K, 45000 kPa	1601 kg/m3	–
393.15 K, 50000 kPa	1613.3 kg/m3	–
393.15 K, 55000 kPa	1624.9 kg/m3	–
393.15 K, 60000 kPa	1635.8 kg/m3	–
393.15 K, 65000 kPa	1646 kg/m3	–
393.15 K, 70000 kPa	1655.8 kg/m3	–
393.15 K, 80000 kPa	1674.1 kg/m3	–
393.15 K, 90000 kPa	1690.9 kg/m3	–
393.15 K, 100000 kPa	1706.5 kg/m3	–
393.15 K, 110000 kPa	1721 kg/m3	–
393.15 K, 120000 kPa	1734.7 kg/m3	–
393.15 K, 130000 kPa	1747.5 kg/m3	–
393.15 K, 140000 kPa	1759.7 kg/m3	–
